Experimental data taken from patent US20060058383A1 (priority 2004, published 2006).

Assays:
Raji cells [1] = experiment: Cellular glucose uptake, [3H]-2-deoxyglucose; assay type: cell-based, human; details: 2 h
Procedure: After the samples were washed three times with cold PBS, the radioactivity in the cell pellets was quantified by liquid scintillation counting. […] Intracellular nucleotides were extracted from the cells with 0.4 N of perchloric acid (PCA) for 10 min in ice-bath, neutralization with concentrated KOH to pH 7.0, and analyzed by HPLC analysis as described previously (Xu et al., 2005; Seymour et al., 1996). The intracellular ATP contents were calculated using the ATP standard curve generated under identical HPLC conditions, and normalized by equal cell number. The relative cellular ATP levels were expressed as percent of the control cells.

HL-60 cells = experiment: MTT assay, in vitro cytotoxic activity before and after storage of drug solutions; assay type: cell-based, human; details: pH 7.0, 72 h drug incubation
[2] = Stability of neutral drug solution on storage
cancer cells = experiment: In vitro anticancer activity versus other glycolytic inhibitors; assay type: cell-based
HL-60 leukemia cells = experiment: Drug combination index, median-effect analysis; assay type: cell-based, human; details: combination with rapamycin (100 ng/ml), 24 h; CI less than 1 = synergistic
Procedure: (§1) FIGS. 35A-35D show synergistic cytotoxic effect of rapamycin and glycolycin (3-BrOP) in human lymphoma and leukemia cells. In FIG. 35A, the human lymphoma Raji cells were treated with 3-BrOP (30 μM), rapamycin (100 ng/ml), or their combinations as indicated, and apoptosis was measured by flow cytometry analysis after the cells were double-stained with annexin-V and PI as described in the Examples. In case of drug combination, cells were first treated with rapamycin for 18 h before addition of 3-BrOP and incubated for an additional 24 h or 48 h. In FIG. 35B, there is concentration-dependent induction of loss of cell viability by 3-BrOP in the presence and absence of rapamycin (100 ng/ml, 24 h) in Raji cells. Cells were double-stained with annexin-V and PI followed by flow cytometry analysis, and viable cells were expressed as % of control. […] Cell viability was determined as described above.
(§2) The above observations prompted the present inventors to use a formal drug combination analysis to determine if rapamycin and 3-BrOP have a synergistic effect. […] Cells were treated with various concentrations of 3-BrOP in the presence of a fixed concentration of rapamycin (100 ng/ml) for 24 h, and the percentage of apoptotic cells was quantitated by flow cytometry analysis using annexin-V/PI double staining. […]

Raji cells [3] = experiment: Drug combination index, median-effect analysis; assay type: cell-based, human; details: combination with rapamycin (100 ng/ml), 24 h; CI less than 1 = synergistic
Procedure: as §1, §2

Raji cells [4] = experiment: Cell growth by direct cell counting (Coulter Z2); assay type: cell-based, human
Procedure: A different assay was then used to further confirm the synergy between rapamycin and 3-BrOP. Raji cells were treated with 30 μM 3-BrOP, 100 ng/ml rapamycin, or their combination, and the numbers of cells were directly counted for consecutive 3 days, using a Coulter Z2 Particle Count & Size Analyzer.
Cell growth inhibition was determined by direct counting of the cells after they were treated with rapamycin, 3-BrOP, or their combination. A Coulter Z2 Particle Count & Size Analyzer was used to determine cell counts at 24 h, 48 h, and 72 h after drug incubation. Apoptosis was measured by flow cytometric analysis of cells stained with annexin V-FITC and propidium iodide (PI). Cells were treated with the indicated compounds under various incubation conditions as described in the figure legends. The samples were collected, washed with cold PBS, and then suspended in annexin-V binding buffer. The cells were stained with annexin V-FITC for 15 min at room temperature, washed, and then stained with PI. The samples were analyzed using a FACSCalibur flow cytometer equipped with CELLQuestPro software (Becton-Dickinson, San Jose, Calif.).

Raji cells [5] = experiment: Cellular ATP pool by HPLC; assay type: cell-based, human
Procedure: HPLC analysis was then used to determine cellular ATP pool in an attempt to understand the biochemical basis of the synergistic activity of rapamycin and 3-BrOP. Raji cells were treated with various concentrations of 3-BrOP in the presence and absence of rapamycin (100 ng/ml) for 6 h, and cellular ATP and other nucleotide pools were measured by HPLC analysis as described in Examples herein.
Because this ATP depletion occurred before apoptosis became detectable, it seems that the enhancement of ATP depletion might be a biochemical mechanism by which rapamycin promote the cytotoxic effect of 3-BrOP. […]
After cells were treated with rapamycin and 3-BrOP under the desired conditions, cellular glucose uptake was measured by incubating the cells in glucose-free RPMI 1640 media with 0.2 μCi/ml of [^3H]-2-deoxyglucose (specific activity, 40 Ci/mmol) for 60 min. After the samples were washed three times with cold PBS, the radioactivity in the cell pellets was quantified by liquid scintillation counting. […] Intracellular nucleotides were extracted from the cells with 0.4 N of perchloric acid (PCA) for 10 min in ice-bath, neutralization with concentrated KOH to pH 7.0, and analyzed by HPLC analysis as described previously (Xu et al., 2005; Seymour et al., 1996). […] The relative cellular ATP levels were expressed as percent of the control cells.

**Q.** With CCCOC(=O)C(=O)CBr [Glycolycin, propyl 3-bromo-2-oxopropionate] as the molecule, how does the “decrease of glucose uptake” value (Raji cells [1]; 30 μM) read?
**A.** The value was 33%.

**Q.** And the “decrease of glucose uptake” value (Raji cells [1]; 50 μM)?
**A.** Its value is 71%.

**Q.** And the inhibition at 30 µM (Raji cells [1]; Homo sapiens, Raji, 30 μM, in the presence of rapamycin (100 ng/ml, 18 h pre-treatment))?
**A.** The inhibition at 30 µM was 70%.

**Q.** And the inhibition at 50 µM (Raji cells [1]; Homo sapiens, Raji, 50 μM, combination with 100 ng/ml of rapamycin (18 h pre-treatment))?
**A.** The inhibition at 50 µM was 94%.

**Q.** And the “% Cell Survival” value (HL-60 cells; 5 μM, fresh drug solution)?
**A.** Its value is 19.3 ± 5.7%.

**Q.** What about the “% Cell Survival” value (HL-60 cells; 10 μM, drug stored for 3 weeks at 4° C.) of the same molecule?
**A.** The value was 3.0 ± 1.3%.

**Q.** What about the “% Cell Survival” value (HL-60 cells; 10 μM, fresh drug solution) of the same molecule?
**A.** Its value is 2.5 ± 0.8%.

**Q.** What about the “% Cell Survival” value (HL-60 cells; 30 μM, drug stored for 3 weeks at 4° C.) of the same molecule?
**A.** The value was 2.9 ± 1.2%.

**Q.** And the “% Cell Survival” value (HL-60 cells; 30 μM, fresh drug solution)?
**A.** Its value is 3.7 ± 0.6%.

**Q.** And the “% Cell Survival” value (HL-60 cells; 100 μM, drug stored for 3 weeks at 4° C.)?
**A.** Its value is 2.5 ± 0.9%.

**Q.** And the “% Cell Survival” value (HL-60 cells; 100 μM, fresh drug solution)?
**A.** The value was 3.5 ± 1.7%.

**Q.** What about the “activity of solution after storage” value ([2]; kept at 4° C. for 3 weeks) of the same molecule?
**A.** The value was “remained stable”.

**Q.** And the “stability of solution at neutral pH” value ([2]; pH 7.0, kept at 4° C.)?
**A.** The value was “stable”.

**Q.** And the “potency as measured by IC50 relative to currently available glycolytic inhibitors with a similar mechanism of action” value (cancer cells)?
**A.** The value was 10-20 fold.

**Q.** And the “drug combination index (CI)” value (HL-60 leukemia cells)?
**A.** Its value is under 1.0.

**Q.** And the “drug combination index (CI)” value (Raji cells [3])?
**A.** Its value is under 1.0.

**Q.** What about the “decrease in cell numbers” value (Raji cells [4]; 30 μM alone, up to 72 h) of the same molecule?
**A.** The value was about 35%.

**Q.** And the cell growth (Raji cells [4]; 30 μM in combination with 100 ng/ml rapamycin)?
**A.** The cell growth was “almost complete inhibition of cell growth”.

**Q.** What about the “cellular ATP pool” value (Raji cells [5]; 6-h treatment after pre-incubation with 100 ng/ml rapamycin for 18 h) of the same molecule?
**A.** The value was “significantly enhanced the depletion of cellular ATP”.

**Q.** What about the “cellular ATP pool” value (Raji cells [5]; various concentrations, 6 h) of the same molecule?
**A.** The value was “concentration-dependent decrease”.
